Data on 4 compounds can be found in patent US20110288151A1, “METHODS OF CHARACTERIZING BREAST CANCER AND IDENTIFYING TREATMENTS FOR SAME” (The Trustees of the University of Pennsylvania, priority 2008, published 2011).

The subject of one assay is Rac1. Put plainly: Rac1-GTP GST pull down, HRG-treated MCF-10A cells. It counts as cell-based, human. The settings on record: serum-starved MCF-10A cells, HRG 100 ng/ml 5 min, pretreatment (1 h; PTX 24 h). On the procedure: The image of the immunoblot depicts Rac1-GTP levels as determined by a GST pull down assay of serum-starved MCF-10A cells treated with HRG (100 ng/ml, 5 min), with or without pretreatment with PI3K inhibitor wortmannin, EGFR inhibitor AG1478, PI3Kγ inhibitor 5-quinoxalin-6-ylmethylene-thiazolidine-2,4-dione (1 mM, 1 h), or PTX (24 h) (FIG. 17).

A further assay has as its system P-Rex1. Put plainly: P-Rex1 sub-cellular localization in MCF-7 cells (fluorescence microscopy). It counts as cell-based, human. The settings on record: HRG 10 ng/mL 10 min, Wortmannin 1 μM, antibodies 10 μg/mL 1 hr. How it is done:
Cells were then fixed and stained with the antibody of Example 1 to detect P-Rex1 and subject to staining with a secondary Cy2-conjugated antibody, and visualized with fluorescence microscopy. […] (FIG. 12A and FIG. 12B).
To test whether this effect of HRG on P-Rex1 localization was dependent on PI3K, MCF-7 breast cancer cells were serum starved for 48 hours, treated for 10 minutes with HRG (10 ng/mL), with or without Wortmannin (1 μM), an anti-ErbB3 blocking antibody (10 μg/mL, 1 hr) or control IgG and stained and visualized (FIG. 12B).

The test system of assay [1] is Rac. Description: Rac activation by HRG or EGF in breast cancer cell lines (GST-Raf-PBD pull-down). It counts as cell-based. Particulars: various breast cancer cell lines, HRG 10 ng/mL or EGF 100 ng/mL, 0-5 minutes, n=3.
The subject of another assay is T-47D cells. Description: Membrane ruffles in T-47D cells. The class given is cell-based, human. Particulars: T-47D cells treated with HRG or EGF. How it is done:
HRG is known to cause morphological changes, including the formation of lamellipodia and membrane ruffles.
FIG. 14E is a bar graph depicting reduced colony formation, in response to treatment with HRG (10 ng/mL), in the P-Rex1 depleted cell lines of FIG. 14A as compared to control cells.

In assay [2] the test system is Rac. Description: Rac-GTP pull-down, HRG-treated MCF-7 cells. It counts as cell-based, human. The settings on record: HRG 100 ng/ml, 5 min, pharmacological inhibitor. How it is done:
FIG. […] Rac-GTP levels were determined by a Rac-GTP pull-down assay of lysates of the treated cells. […]
As described above, Gβγ subunits are known to activate PI3Kγ. As Rac activation by HRG is affected by PTX as shown in Example 10, the involvement of PI3Kγ in the response was investigated.
To further investigate the role of PI3Kγ, PI3Kγ depleted MCF-7 cell lines were generated using PI3Kγ (#1 and #2) and non-target sequence (NTS) control shRNA lentiviruses (Sigma) (FIG. 16B).
To determine whether CXCR4 is involved in HRG responses, CXCR4 expression was knocked down using RNAi in MCF-7 cells. […] Such a mechanism has important implications in tumorigenesis and metastatic dissemination.

For the compound `COc1cc2ncnc(Nc3cccc(Cl)c3)c2cc1OC` [AG1478], the “sensitivity of Rac1 activation by HRG” value in the assay with Rac1 was “blocked Rac activation”.
On to `CC(C)(C)n1nc(-c2ccc(Cl)cc2)c2c(N)ncnc21` [PP2], for which, in the assay with P-Rex1, the “effect on HRG-induced P-Rex1 localization” value is listed as “did not have such an effect”.
With “EGF: epidermal growth factor (NSDSECPLSHDGYCLHDGVCMYIEALDKYACNCVVGYIGERCQYRDLKWWELR; UniProt P01133 971-1023, looked up)”, the Rac activation entry in the assay on Rac [1] is given as “activate Rac”. Also, in the assay with T-47D cells, the “ruffle formation on ligand treatment” value was “characteristic ruffles were observed”.
For `O=C1NC(=O)C(=Cc2ccc3nccnc3c2)S1` [5-quinoxalin-6-ylmethylene-thiazolidine-2,4-dione], in the assay with Rac1, the “sensitivity of Rac1 activation by HRG” value was “insensitive”. Moreover, the “Rac activation by HRG” value in the assay on Rac [2] is given as “dose-dependently reduced Rac activation by HRG”.
